Measurements reported in ChEMBL document CHEMBL4406923, “New Potent DOT1L Inhibitors for in Vivo Evaluation in Mouse” (ACS Med Chem Lett, 2019).
The source made the active and inactive calls. No cut-off for these calls is given here.

Experiments:
[1] = biological target: N-lysine methyltransferase SMYD2 (Homo sapiens) (UniProt Q9NRG4); assay: Inhibition of SmyD2 (unknown origin) at <5 uM using p53 (363 to 393 residues) as substrate in presence of co-factor SAM by LC-MS analysis
[2] = biological target: T1, Histone-lysine N-methyltransferase NSD3 (Homo sapiens) (UniProt Q9BZ95); assay: Inhibition of NSD3 (unknown origin) at <5 uM using histone H3 peptide (1 to 45) as substrate in presence of co-factor SAM by LC-MS analysis
T1 sequence (whole entry): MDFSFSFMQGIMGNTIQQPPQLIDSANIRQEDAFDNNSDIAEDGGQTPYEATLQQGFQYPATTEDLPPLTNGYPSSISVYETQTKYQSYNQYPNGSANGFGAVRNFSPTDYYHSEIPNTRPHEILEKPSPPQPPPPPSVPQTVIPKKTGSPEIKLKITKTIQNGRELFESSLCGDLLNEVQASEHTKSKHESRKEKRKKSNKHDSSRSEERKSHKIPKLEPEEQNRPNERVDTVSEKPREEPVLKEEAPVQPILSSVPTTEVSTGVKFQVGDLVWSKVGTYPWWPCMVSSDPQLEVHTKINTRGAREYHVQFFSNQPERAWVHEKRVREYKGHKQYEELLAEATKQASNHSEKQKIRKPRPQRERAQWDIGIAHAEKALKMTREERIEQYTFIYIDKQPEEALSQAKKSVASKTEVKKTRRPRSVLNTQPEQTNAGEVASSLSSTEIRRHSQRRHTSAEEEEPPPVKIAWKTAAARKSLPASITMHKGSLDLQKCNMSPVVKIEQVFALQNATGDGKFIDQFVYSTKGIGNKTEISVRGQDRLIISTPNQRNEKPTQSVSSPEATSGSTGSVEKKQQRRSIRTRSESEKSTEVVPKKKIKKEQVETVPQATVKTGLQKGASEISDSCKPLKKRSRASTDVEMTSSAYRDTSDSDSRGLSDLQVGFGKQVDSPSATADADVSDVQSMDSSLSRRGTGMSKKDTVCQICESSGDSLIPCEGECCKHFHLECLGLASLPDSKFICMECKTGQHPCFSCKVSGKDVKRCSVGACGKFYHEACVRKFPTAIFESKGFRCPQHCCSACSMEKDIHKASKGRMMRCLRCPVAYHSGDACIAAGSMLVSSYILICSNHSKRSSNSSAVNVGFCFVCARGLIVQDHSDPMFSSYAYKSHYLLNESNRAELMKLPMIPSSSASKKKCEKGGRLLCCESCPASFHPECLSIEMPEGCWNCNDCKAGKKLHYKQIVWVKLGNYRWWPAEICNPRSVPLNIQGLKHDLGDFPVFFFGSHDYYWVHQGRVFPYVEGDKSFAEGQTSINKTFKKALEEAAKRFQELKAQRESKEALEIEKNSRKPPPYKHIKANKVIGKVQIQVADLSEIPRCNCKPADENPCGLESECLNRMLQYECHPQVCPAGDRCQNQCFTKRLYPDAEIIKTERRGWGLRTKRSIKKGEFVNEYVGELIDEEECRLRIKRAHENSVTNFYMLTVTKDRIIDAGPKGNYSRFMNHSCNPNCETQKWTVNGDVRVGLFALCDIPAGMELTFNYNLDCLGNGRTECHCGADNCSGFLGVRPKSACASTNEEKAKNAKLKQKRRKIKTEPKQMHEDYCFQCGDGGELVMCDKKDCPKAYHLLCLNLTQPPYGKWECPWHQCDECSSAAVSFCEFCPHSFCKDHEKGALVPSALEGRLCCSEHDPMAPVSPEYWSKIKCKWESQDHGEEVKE

[3] = species on record: Homo sapiens; assay: Inhibition of Ezh1 (Ezh1/EED/SUZ12/AEBP2/RbAP48) (unknown origin) at <5 uM using histone H3 peptide (21 to 44) as substrate in presence of co-factor SAM by LC-MS analysis
[4] = biological target: T2, N-lysine methyltransferase KMT5A (Homo sapiens) (UniProt Q9NQR1); assay: Inhibition of SETD8 (unknown origin) at <5 uM using H4 (11 to 33 residues) as substrate in presence of co-factor SAM by LC-MS analysis
T2 sequence (whole entry): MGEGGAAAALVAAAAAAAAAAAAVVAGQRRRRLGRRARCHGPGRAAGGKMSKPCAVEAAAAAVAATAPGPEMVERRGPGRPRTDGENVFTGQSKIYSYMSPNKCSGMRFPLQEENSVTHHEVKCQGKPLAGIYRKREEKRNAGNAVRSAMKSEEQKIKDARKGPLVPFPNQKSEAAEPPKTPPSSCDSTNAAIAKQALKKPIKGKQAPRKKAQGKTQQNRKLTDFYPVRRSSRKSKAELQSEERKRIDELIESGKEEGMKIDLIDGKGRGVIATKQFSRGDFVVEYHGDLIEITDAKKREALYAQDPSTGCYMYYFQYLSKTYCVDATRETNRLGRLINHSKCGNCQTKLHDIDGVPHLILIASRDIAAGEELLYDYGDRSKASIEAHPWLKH

[5] = biological target: Histone-lysine N-methyltransferase SUV39H2 (Homo sapiens) (UniProt Q9H5I1); assay: Inhibition of Suv39H2 (unknown origin) at <5 uM using histone H3 peptide (1 to 21) as substrate in presence of co-factor SAM by LC-MS analysis
[6] = biological target: Histone-lysine N-methyltransferase SETD2 (Homo sapiens) (UniProt Q9BYW2); assay: Inhibition of SETD2 (unknown origin) at <5 uM using histone H3 peptide (21 to 44) as substrate in presence of co-factor SAM by LC-MS analysis
[7] = biological target: T3, Histone-lysine N-methyltransferase, H3 lysine-79 specific (Homo sapiens, UniProt Q8TEK3); assay: Binding affinity to DOT1l (unknown origin) assessed as dissociation half life by SPR assay
Target sequence in this assay (Q8TEK3 whole entry, looked up, the tested form may be a part): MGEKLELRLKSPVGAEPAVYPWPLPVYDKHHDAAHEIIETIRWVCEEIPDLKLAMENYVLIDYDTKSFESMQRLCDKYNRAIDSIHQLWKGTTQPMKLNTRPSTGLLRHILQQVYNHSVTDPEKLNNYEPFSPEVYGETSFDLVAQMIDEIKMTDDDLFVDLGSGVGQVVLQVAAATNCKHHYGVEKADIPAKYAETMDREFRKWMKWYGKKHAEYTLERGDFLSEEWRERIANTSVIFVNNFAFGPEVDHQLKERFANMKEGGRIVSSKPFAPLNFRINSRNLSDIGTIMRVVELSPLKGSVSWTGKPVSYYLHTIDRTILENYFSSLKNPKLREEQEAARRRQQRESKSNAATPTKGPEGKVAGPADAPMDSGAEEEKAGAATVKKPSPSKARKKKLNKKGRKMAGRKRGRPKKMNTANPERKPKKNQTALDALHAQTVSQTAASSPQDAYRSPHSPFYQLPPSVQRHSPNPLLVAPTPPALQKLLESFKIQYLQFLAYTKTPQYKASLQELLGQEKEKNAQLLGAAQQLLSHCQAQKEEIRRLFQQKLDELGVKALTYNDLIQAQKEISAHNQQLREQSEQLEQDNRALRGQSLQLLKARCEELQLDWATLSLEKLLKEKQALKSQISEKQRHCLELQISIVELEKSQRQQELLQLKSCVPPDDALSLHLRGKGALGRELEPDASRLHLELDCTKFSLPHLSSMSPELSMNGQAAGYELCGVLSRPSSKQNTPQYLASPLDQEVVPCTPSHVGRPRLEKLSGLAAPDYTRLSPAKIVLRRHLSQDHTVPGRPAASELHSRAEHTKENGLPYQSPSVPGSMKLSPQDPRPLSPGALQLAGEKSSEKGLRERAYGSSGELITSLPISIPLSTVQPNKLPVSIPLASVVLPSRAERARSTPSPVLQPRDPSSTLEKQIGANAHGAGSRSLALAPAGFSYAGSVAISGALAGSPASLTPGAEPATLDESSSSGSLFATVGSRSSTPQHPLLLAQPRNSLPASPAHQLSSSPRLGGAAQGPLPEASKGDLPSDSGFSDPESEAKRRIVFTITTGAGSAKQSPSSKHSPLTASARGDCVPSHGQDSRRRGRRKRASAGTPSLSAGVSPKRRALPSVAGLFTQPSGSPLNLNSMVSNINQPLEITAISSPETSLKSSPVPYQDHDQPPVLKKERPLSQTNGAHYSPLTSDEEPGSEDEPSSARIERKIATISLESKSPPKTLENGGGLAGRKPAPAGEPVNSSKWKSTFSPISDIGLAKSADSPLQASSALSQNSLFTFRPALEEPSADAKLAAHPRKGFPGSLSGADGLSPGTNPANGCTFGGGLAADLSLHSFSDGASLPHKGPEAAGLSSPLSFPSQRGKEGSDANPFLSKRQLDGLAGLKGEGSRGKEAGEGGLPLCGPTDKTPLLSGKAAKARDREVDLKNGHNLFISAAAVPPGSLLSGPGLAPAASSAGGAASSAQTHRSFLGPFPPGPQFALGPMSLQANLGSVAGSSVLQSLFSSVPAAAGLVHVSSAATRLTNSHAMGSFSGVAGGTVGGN

[8] = biological target: T3, Histone-lysine N-methyltransferase, H3 lysine-79 specific; assay: Inhibition of 0.05 nM DOT1L (2 to 416 residues) (unknown origin) using biotinylated nucleosome as substrate and [3H]SAM as co-factor preincubated for 30 mins followed by substrate and cofactor addition and measured after 180 mins by scintillation proximity assay
Target sequence in this assay (Q8TEK3 whole entry, the tested form may be a part): as the sequence (Q8TEK3 whole entry, looked up, the tested form may be a part) above

Histone-lysine N-methyltransferase SUV39H2 (Homo sapiens), sequence (Q9H5I1 whole entry): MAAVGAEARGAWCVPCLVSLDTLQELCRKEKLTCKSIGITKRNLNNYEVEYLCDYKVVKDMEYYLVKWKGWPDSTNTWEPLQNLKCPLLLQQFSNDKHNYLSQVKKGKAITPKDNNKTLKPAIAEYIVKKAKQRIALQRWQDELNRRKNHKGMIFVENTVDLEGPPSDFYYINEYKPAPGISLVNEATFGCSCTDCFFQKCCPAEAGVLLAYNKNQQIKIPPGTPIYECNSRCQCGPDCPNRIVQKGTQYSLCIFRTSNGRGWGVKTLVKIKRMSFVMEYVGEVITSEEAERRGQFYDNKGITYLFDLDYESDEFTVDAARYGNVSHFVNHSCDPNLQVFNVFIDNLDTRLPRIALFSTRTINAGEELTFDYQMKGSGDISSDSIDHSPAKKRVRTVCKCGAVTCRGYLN
Histone-lysine N-methyltransferase SETD2 (Homo sapiens), sequence (Q9BYW2 whole entry): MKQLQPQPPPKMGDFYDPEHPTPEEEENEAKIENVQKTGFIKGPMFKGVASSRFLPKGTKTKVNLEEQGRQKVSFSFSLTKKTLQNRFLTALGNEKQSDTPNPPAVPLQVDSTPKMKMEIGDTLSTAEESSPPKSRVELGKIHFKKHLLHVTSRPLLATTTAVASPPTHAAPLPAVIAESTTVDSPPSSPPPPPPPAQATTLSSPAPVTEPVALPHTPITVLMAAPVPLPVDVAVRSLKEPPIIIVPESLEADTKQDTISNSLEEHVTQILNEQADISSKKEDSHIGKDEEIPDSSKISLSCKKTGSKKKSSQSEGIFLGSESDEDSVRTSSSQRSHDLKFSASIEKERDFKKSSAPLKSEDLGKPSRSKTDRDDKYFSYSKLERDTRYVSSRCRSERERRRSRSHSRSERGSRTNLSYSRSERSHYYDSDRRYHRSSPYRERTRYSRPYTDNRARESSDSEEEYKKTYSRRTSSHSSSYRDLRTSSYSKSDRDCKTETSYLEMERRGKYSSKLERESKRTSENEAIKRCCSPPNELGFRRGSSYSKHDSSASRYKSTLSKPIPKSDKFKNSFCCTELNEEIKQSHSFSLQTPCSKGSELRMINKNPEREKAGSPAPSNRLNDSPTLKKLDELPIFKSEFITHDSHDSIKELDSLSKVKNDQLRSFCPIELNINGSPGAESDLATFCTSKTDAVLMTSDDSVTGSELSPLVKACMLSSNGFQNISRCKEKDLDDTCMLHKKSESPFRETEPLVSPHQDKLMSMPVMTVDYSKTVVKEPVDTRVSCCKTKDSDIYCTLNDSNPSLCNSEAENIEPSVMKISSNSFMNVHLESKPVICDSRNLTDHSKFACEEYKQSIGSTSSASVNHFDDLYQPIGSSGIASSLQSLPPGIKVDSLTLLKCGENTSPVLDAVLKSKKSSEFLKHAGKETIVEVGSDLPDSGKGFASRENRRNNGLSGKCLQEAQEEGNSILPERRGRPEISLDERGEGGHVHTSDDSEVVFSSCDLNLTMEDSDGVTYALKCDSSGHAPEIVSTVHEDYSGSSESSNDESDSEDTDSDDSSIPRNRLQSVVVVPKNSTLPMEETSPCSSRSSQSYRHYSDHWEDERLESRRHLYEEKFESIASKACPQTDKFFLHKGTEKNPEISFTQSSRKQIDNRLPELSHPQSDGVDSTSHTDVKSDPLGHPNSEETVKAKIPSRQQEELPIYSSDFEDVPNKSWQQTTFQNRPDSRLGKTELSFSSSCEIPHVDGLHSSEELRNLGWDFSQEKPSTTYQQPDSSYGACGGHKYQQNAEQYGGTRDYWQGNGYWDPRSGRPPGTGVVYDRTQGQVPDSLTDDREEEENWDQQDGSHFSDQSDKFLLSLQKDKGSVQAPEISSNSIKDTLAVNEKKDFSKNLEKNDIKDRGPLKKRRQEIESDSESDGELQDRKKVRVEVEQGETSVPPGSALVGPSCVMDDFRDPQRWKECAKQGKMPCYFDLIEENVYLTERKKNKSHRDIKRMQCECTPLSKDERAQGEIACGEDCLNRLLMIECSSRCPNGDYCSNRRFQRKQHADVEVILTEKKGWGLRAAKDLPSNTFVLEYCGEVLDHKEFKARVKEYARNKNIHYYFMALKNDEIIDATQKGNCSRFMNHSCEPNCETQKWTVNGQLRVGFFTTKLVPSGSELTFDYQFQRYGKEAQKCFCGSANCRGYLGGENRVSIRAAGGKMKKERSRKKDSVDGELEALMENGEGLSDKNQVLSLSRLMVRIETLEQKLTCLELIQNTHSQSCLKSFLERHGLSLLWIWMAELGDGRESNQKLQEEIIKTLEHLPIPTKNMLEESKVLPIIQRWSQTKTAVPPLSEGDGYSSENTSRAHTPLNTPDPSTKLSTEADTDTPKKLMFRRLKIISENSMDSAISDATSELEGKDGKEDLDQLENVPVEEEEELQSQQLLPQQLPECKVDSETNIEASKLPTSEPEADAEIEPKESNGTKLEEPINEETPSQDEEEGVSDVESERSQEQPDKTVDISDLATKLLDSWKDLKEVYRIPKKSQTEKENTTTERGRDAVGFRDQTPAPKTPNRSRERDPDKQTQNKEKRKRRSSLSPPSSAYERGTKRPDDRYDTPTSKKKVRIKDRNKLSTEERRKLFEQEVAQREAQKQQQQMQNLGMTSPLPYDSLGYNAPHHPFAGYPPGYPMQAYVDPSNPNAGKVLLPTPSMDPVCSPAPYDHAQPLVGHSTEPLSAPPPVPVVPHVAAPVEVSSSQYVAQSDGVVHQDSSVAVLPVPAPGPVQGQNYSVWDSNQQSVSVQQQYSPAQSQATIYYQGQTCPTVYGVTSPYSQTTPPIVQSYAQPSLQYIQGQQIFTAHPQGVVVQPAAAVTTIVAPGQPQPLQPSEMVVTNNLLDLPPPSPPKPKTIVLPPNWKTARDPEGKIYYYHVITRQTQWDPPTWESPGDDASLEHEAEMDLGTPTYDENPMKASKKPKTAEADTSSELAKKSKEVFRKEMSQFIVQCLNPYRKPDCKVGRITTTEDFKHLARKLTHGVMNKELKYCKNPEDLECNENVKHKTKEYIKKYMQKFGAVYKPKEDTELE
N-lysine methyltransferase SMYD2 (Homo sapiens), sequence (Q9NRG4 whole entry, the tested form may be a part): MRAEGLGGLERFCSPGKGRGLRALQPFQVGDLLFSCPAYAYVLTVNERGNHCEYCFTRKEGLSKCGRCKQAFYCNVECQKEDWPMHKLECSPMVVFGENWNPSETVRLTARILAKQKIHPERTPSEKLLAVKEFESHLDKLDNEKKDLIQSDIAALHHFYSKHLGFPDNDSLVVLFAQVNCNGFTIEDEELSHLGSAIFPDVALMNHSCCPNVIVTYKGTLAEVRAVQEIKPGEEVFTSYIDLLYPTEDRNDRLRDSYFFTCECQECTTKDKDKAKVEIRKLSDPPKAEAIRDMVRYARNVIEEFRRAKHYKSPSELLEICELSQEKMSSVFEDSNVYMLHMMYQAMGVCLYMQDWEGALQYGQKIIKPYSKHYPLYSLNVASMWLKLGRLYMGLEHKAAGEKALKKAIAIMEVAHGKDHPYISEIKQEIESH

inhibition [1]: inactive
inhibition [2]: inactive
inhibition [3]: inactive
inhibition [4]: inactive
inhibition [5]: inactive
inhibition [6]: inactive
T1/2 [7]: > 5 h
IC50 [8]: 0.11 nM
SMILES: COc1nc(Nc2cc(S(C)(=O)=O)ccc2N[C@@H](c2cccc3c2OC(F)(F)O3)c2ncccc2Cl)nc(N2CCNCC2)n1
